According to ChEMBL document CHEMBL3885881, “DrugMatrix”:

Species on record: Rattus norvegicus
Assay: DrugMatrix - Regimen: Daily Repeat
Assay type: toxicity, organism-based, Sprague-Dawley
Parameters: regimen Daily Repeat, gender Male, age 6-8 weeks
Settings: in vivo, po, route oral GAVAGE, […]; for ABSOLUTE BASOPHIL / ABSOLUTE EOSINOPHIL / ABSOLUTE LYMPHOCYTE / ABSOLUTE MONOCYTE / ABSOLUTE SEGMENTED NEUTROPHIL / BASOPHIL / EOSINOPHIL / ERYTHROCYTE COUNT / HEMATOCRIT / HEMOGLOBIN / LEUKOCYTE COUNT / LYMPHOCYTE / MEAN CORPUSCULAR HEMOGLOBIN / MEAN CORPUSCULAR HEMOGLOBIN CONCENTRATION / MEAN CORPUSCULAR VOLUME / MONOCYTE / NEUTROPHIL / NUCLEATED RED BLOOD CELLS / PLATELET COUNT: tissue Blood; for ALANINE AMINOTRANSFERASE / ALBUMIN / ALKALINE PHOSPHATASE / ASPARTATE AMINOTRANSFERASE / BLOOD UREA NITROGEN / CARBON DIOXIDE / CHLORIDE / CHOLESTEROL / CREATINE PHOSPHOKINASE / CREATININE / GLUCOSE / LACTATE DEHYDROGENASE / LIPASE / PHOSPHORUS / POTASSIUM / SODIUM / TOTAL BILIRUBIN / TOTAL PROTEIN / URIC ACID: tissue Plasma
[1] = 0 mg/kg, 72 h, dose level Control, time 3 day
[2] = 0 mg/kg, 120 h, dose level Control, time 5 day
[3] = 1 mg/kg, 72 h, dose level Low, time 3 day

C[C@H]1O[C@@H](O[C@H]2[C@@H](O)C[C@H](O[C@H]3[C@@H](O)C[C@H](O[C@H]4CC[C@@]5(C)[C@H](CC[C@@H]6[C@@H]5CC[C@]5(C)[C@@H](C7=CC(=O)OC7)CC[C@]65O)C4)O[C@@H]3C)O[C@@H]2C)C[C@H](O)[C@@H]1O [DIGITOXIN]
ABSOLUTE BASOPHIL [1]: 0 CELLS/uL
ABSOLUTE EOSINOPHIL [1]: 13.67 CELLS/uL
ABSOLUTE LYMPHOCYTE [1]: 10069.5 CELLS/uL
ABSOLUTE MONOCYTE [1]: 50 CELLS/uL
ABSOLUTE SEGMENTED NEUTROPHIL [1]: 516.83 CELLS/uL
BASOPHIL [1]: 0%
EOSINOPHIL [1]: 0.17%
ERYTHROCYTE COUNT [1]: 5.44 x10E6/uL
HEMATOCRIT [1]: 33.88%
HEMOGLOBIN [1]: 13.23 G/DL
LEUKOCYTE COUNT [1]: 10.65 x10E3/uL
LYMPHOCYTE [1]: 94.67%
MEAN CORPUSCULAR HEMOGLOBIN [1]: 24.37 pg
MEAN CORPUSCULAR HEMOGLOBIN CONCENTRATION [1]: 39.05 G/DL
MEAN CORPUSCULAR VOLUME [1]: 62.38 fL
MONOCYTE [1]: 0.67%
NEUTROPHIL [1]: 4.5%
NUCLEATED RED BLOOD CELLS [1]: 0.33 /100WBC
PLATELET COUNT [1]: 414.5 x10E3/uL
ALANINE AMINOTRANSFERASE [1]: 72 u/L
ALBUMIN [1]: 3.75 G/DL
ALKALINE PHOSPHATASE [1]: 375 u/L
ASPARTATE AMINOTRANSFERASE [1]: 87.5 u/L
BLOOD UREA NITROGEN [1]: 14 mg/dL
CARBON DIOXIDE [1]: 27.5 mmol/L
CHLORIDE [1]: 95.83 MEQ/L
CHOLESTEROL [1]: 68.5 mg/dL
CREATINE PHOSPHOKINASE [1]: 284.33 u/L
CREATININE [1]: 0.16 mg/dL
GLUCOSE [1]: 156.67 mg/dL
LACTATE DEHYDROGENASE [1]: 101.83 u/L
LIPASE [1]: 9.67 u/L
PHOSPHORUS [1]: 10.33 mg/dL
POTASSIUM [1]: 5.22 MEQ/L
SODIUM [1]: 137.67 MEQ/L
TOTAL BILIRUBIN [1]: 0.13 mg/dL
TOTAL PROTEIN [1]: 5.43 G/DL
URIC ACID [1]: 0.8 mg/dL
ABSOLUTE BASOPHIL [2]: 0 CELLS/uL
ABSOLUTE EOSINOPHIL [2]: 20.67 CELLS/uL
ABSOLUTE LYMPHOCYTE [2]: 11518.33 CELLS/uL
ABSOLUTE MONOCYTE [2]: 47 CELLS/uL
ABSOLUTE SEGMENTED NEUTROPHIL [2]: 614 CELLS/uL
BASOPHIL [2]: 0%
EOSINOPHIL [2]: 0.17%
ERYTHROCYTE COUNT [2]: 5.61 x10E6/uL
HEMATOCRIT [2]: 34.25%
HEMOGLOBIN [2]: 13.38 G/DL
LEUKOCYTE COUNT [2]: 12.2 x10E3/uL
LYMPHOCYTE [2]: 94.33%
MEAN CORPUSCULAR HEMOGLOBIN [2]: 23.83 pg
MEAN CORPUSCULAR HEMOGLOBIN CONCENTRATION [2]: 39.08 G/DL
MEAN CORPUSCULAR VOLUME [2]: 61.03 fL
MONOCYTE [2]: 0.33%
NEUTROPHIL [2]: 5.17%
NUCLEATED RED BLOOD CELLS [2]: 0 /100WBC
PLATELET COUNT [2]: 941.83 x10E3/uL
ALANINE AMINOTRANSFERASE [2]: 68.83 u/L
ALBUMIN [2]: 4.12 G/DL
ALKALINE PHOSPHATASE [2]: 492.67 u/L
ASPARTATE AMINOTRANSFERASE [2]: 83.33 u/L
BLOOD UREA NITROGEN [2]: 14 mg/dL
CARBON DIOXIDE [2]: 37 mmol/L
CHLORIDE [2]: 98.67 MEQ/L
CHOLESTEROL [2]: 56.5 mg/dL
CREATINE PHOSPHOKINASE [2]: 167.33 u/L
CREATININE [2]: 0.17 mg/dL
GLUCOSE [2]: 157.5 mg/dL
LACTATE DEHYDROGENASE [2]: 104.83 u/L
LIPASE [2]: 10 u/L
PHOSPHORUS [2]: 10.43 mg/dL
POTASSIUM [2]: 5.46 MEQ/L
SODIUM [2]: 143.87 MEQ/L
TOTAL BILIRUBIN [2]: 0.17 mg/dL
TOTAL PROTEIN [2]: 5.72 G/DL
URIC ACID [2]: 0.85 mg/dL
ABSOLUTE BASOPHIL [3]: 0 CELLS/uL
ABSOLUTE EOSINOPHIL [3]: 39.67 CELLS/uL
ABSOLUTE LYMPHOCYTE [3]: 11912.33 CELLS/uL
ABSOLUTE MONOCYTE [3]: 73.33 CELLS/uL
ABSOLUTE SEGMENTED NEUTROPHIL [3]: 641.33 CELLS/uL
BASOPHIL [3]: 0%
EOSINOPHIL [3]: 0.33%
ERYTHROCYTE COUNT [3]: 5.7 x10E6/uL
HEMATOCRIT [3]: 35.6%
HEMOGLOBIN [3]: 13.77 G/DL
LEUKOCYTE COUNT [3]: 12.67 x10E3/uL
LYMPHOCYTE [3]: 93.67%
MEAN CORPUSCULAR HEMOGLOBIN [3]: 24.13 pg
MEAN CORPUSCULAR HEMOGLOBIN CONCENTRATION [3]: 38.7 G/DL
MEAN CORPUSCULAR VOLUME [3]: 62.33 fL
MONOCYTE [3]: 0.67%
NEUTROPHIL [3]: 5.33%
NUCLEATED RED BLOOD CELLS [3]: 0 /100WBC
PLATELET COUNT [3]: 661.33 x10E3/uL
ALANINE AMINOTRANSFERASE [3]: 72.67 u/L
ALBUMIN [3]: 3.77 G/DL
ALKALINE PHOSPHATASE [3]: 495.33 u/L
ASPARTATE AMINOTRANSFERASE [3]: 95.67 u/L
BLOOD UREA NITROGEN [3]: 12 mg/dL
CARBON DIOXIDE [3]: 25.67 mmol/L
CHLORIDE [3]: 96.33 MEQ/L
CHOLESTEROL [3]: 70.67 mg/dL
CREATINE PHOSPHOKINASE [3]: 398.33 u/L
CREATININE [3]: 0.17 mg/dL
GLUCOSE [3]: 146.67 mg/dL
LACTATE DEHYDROGENASE [3]: 188.67 u/L
LIPASE [3]: 11 u/L
PHOSPHORUS [3]: 10.1 mg/dL
POTASSIUM [3]: 5.78 MEQ/L
SODIUM [3]: 137.9 MEQ/L
TOTAL BILIRUBIN [3]: 0.13 mg/dL
TOTAL PROTEIN [3]: 5.57 G/DL
